In brackets after ≈: the same amount, converted by molar mass.
Assays:
Umbelopsis ramanniana = test: Antifungal activity against Mortierella ramanniana; type: functional
Penicillium chrysogenum = test: Antifungal activity against Penicillium chrysogenum; type: functional
Candida albicans = test: Antifungal activity against Candida albicans; type: functional
P388 = test: Cytotoxicity against mouse P388 cells; type: functional, cell-based

MIC (Umbelopsis ramanniana): 5 µg/mL (≈ 7.21 µM) | MIC (Penicillium chrysogenum): 10 µg/mL (≈ 14.4 µM) | MIC (Candida albicans): 10 µg/mL (≈ 14.4 µM)
Compound: C[C@H]1/C=C/C=C/C=C/C=C/[C@H](O[C@@H]2O[C@H](C)[C@@H](O)[C@H](N)[C@@H]2O)C[C@@H]2O[C@](O)(C[C@@H](O)CC(=O)C(=O)/C=C/C(=O)O[C@@H]1C)C[C@H](O)[C@H]2C(=O)O [TETRIN C]
IC50 (P388): 4.6 µg/mL (≈ 6.63 µM)

Reference: ChEMBL document CHEMBL1144060, “Tetrin C, a new glycosylated polyene macrolide antibiotic produced by Streptomyces sp. GK9244” (J Nat Prod, 1999)
